The text below walks through data of PMC8895463 (Journal of Agricultural and Food Chemistry, 2022).

The experiment addresses T1, CYP3A4 (Homo sapiens, UniProt P08684).
T1 construct: recombinant; E. coli microsomes; with NADPH cytochrome P450 reductase (POR, P16435), coexpressed
The experiment in a line: fluorogenic Vivid BOMR substrate assay with recombinant CYP3A4/POR E. coli microsomes. The format is biochemical.

T1 sequence (P08684 13-503 S18F): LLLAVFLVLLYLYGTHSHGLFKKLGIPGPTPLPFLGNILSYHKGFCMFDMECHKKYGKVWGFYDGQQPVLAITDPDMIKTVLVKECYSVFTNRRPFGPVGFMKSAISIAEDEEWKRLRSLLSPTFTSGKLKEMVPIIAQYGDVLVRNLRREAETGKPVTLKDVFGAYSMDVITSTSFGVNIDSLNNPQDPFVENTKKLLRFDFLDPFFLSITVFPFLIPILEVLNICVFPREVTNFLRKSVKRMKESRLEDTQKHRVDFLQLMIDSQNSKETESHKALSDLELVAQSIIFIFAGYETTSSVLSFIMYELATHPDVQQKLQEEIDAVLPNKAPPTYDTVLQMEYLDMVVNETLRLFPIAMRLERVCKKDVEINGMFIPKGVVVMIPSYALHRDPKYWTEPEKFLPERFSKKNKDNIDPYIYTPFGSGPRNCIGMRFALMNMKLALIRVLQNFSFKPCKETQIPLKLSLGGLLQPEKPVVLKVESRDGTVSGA
T1 sequence (P16435 2-677, further chain): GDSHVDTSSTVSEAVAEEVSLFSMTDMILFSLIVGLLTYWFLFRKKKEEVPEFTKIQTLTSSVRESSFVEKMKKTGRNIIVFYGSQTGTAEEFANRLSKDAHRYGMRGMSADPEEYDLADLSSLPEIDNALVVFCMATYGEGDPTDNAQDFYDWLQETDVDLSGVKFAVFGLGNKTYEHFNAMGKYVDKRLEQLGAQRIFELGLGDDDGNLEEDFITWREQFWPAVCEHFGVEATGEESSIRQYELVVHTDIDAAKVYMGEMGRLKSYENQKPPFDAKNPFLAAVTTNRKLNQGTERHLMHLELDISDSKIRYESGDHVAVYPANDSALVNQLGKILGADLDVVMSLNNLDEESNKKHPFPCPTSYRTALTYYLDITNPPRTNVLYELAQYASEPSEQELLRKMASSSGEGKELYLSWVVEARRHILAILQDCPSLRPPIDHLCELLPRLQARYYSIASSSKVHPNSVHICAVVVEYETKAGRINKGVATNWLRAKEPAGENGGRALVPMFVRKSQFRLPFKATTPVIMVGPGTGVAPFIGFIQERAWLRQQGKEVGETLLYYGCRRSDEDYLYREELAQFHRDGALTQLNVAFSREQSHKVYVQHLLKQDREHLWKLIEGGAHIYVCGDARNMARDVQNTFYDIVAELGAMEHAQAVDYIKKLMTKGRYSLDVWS

Broadly, the IC50 is the midpoint of a concentration-inhibition curve. For the compound `COc1ccc(-c2cc(=O)c3c(O)cc(O)cc3o2)cc1-c1c(O)cc(O)c2c(=O)cc(-c3ccc(O)cc3)oc12` [bilobetin], the IC50 is 12.9 µM.
